Results published in ChEMBL document CHEMBL1150750, “Modified taxols, 4. Synthesis and biological activity of taxols modified in the side chain” (J Nat Prod, 1988).
≈ marks a conversion by molar mass, not a printed value.

Columns and labels:
P388 [1] = experiment: In vivo cytotoxicity against mouse P388 cells at 40 mg/kg; format: functional
[2] = Chemical stability assessed as decomposition to taxol at pH 6.6 after 20 hrs; format: physicochemical; conditions: buffer, pH 6.6, 20 h
KB = experiment: Cytotoxicity against human KB cells; format: functional; conditions: for EC50: Homo sapiens, KB, read-out: ED50 (the source's name)
[3] = Stability in water assessed as decomposition to taxol after 24 hrs; format: physicochemical; conditions: buffer
P388 [4] = experiment: In vivo cytotoxicity against mouse P388 cells at 20 mg/kg; format: functional
[5] = Solubility in water by HPLC method; format: physicochemical
P388 [6] = experiment: In vivo cytotoxicity against mouse P388 cells at 10 mg/kg; format: functional
P388 [7] = experiment: In vivo cytotoxicity against mouse P388 cells at 5 mg/kg; format: functional
P388 [8] = experiment: In vivo cytotoxicity against mouse P388 cells at 2.5 mg/kg; format: functional
P388 [9] = experiment: In vivo cytotoxicity against mouse P388 cells at 44 mg/kg; format: functional
P388 [10] = experiment: In vivo cytotoxicity against mouse P388 cells at 22 mg/kg; format: functional
P388 [11] = experiment: In vivo cytotoxicity against mouse P388 cells at 11 mg/kg; format: functional
P388 [12] = experiment: In vivo cytotoxicity against mouse P388 cells at 26 mg/kg; format: functional
P388 [13] = experiment: In vivo cytotoxicity against mouse P388 cells at 3.25 mg/kg; format: functional
P388 [14] = experiment: In vivo cytotoxicity against mouse P388 cells at 6.5 mg/kg; format: functional
P388 [15] = experiment: In vivo cytotoxicity against mouse P388 cells at 13 mg/kg; format: functional

SMILES | ED50 (KB) | T/C (P388 [4]) [%] | T/C (P388 [6]) [%] | EC50 (KB) [µg/mL] | further results
CC(=O)O[C@H]1C(=O)[C@@]2(C)[C@H]([C@H](OC(=O)c3ccccc3)[C@]3(O)C[C@H](OC(=O)[C@H](OC(=O)CCN)[C@@H](NC(=O)c4ccccc4)c4ccccc4)C(C)=C1C3(C)C)[C@]1(OC(C)=O)CO[C@@H]1C[C@@H]2O.O=CO | 2 ×10⁻⁴ ug/ml | 130 | 117 |  | T/C (P388 [1]): 140%; Stability [2]: Unstable; Stability [3]: 90%; solubility [5]: 2200 µg/mL
CC(=O)O[C@H]1C(=O)[C@@]2(C)[C@H]([C@H](OC(=O)c3ccccc3)[C@]3(O)C[C@H](OC(=O)[C@H](OC(C)=O)[C@@H](NC(=O)c4ccccc4)c4ccccc4)C(C)=C1C3(C)C)[C@]1(OC(C)=O)CO[C@@H]1C[C@@H]2O | 2 ×10⁻⁵ ug/ml | 140 | 130 |  | T/C (P388 [7]): 127%; T/C (P388 [8]): 127%
CC(=O)O[C@H]1C(=O)[C@]2(C)[C@@H](OC(C)=O)C[C@H]3OC[C@@]3(OC(C)=O)[C@H]2[C@H](OC(=O)c2ccccc2)[C@]2(O)C[C@H](OC(=O)[C@H](OC(C)=O)[C@@H](NC(=O)c3ccccc3)c3ccccc3)C(C)=C1C2(C)C |  | 100 | 105 | 0.2 (≈ 0.213 µM) | T/C (P388 [1]): 104%
CC(=O)O[C@H]1C(=O)[C@@]2(C)[C@H]([C@H](OC(=O)c3ccccc3)[C@]3(O)C[C@H](OC(=O)[C@H](OC(=O)CCC(=O)O)[C@@H](NC(=O)c4ccccc4)c4ccccc4)C(C)=C1C3(C)C)[C@]1(OC(C)=O)CO[C@@H]1C[C@@H]2O |  |  |  | 0.01 (≈ 0.0105 µM) | T/C (P388 [9]): 129%; T/C (P388 [10]): 122%; T/C (P388 [11]): 112%
CC(=O)O[C@H]1C(=O)[C@@]2(C)[C@H]([C@H](OC(=O)c3ccccc3)[C@]3(O)C[C@H](OC(=O)[C@@H]4OC(=O)N(C(=O)c5ccccc5)[C@H]4c4ccccc4)C(C)=C1C3(C)C)[C@]1(OC(C)=O)CO[C@@H]1C[C@@H]2O |  |  |  | 0.2 (≈ 0.227 µM) | 
CC(=O)O[C@H]1C(=O)[C@@]2(C)[C@H]([C@H](OC(=O)c3ccccc3)[C@]3(O)C[C@H](OC(=O)[C@H](OC(=O)CCNC(=O)OCc4ccccc4)[C@@H](NC(=O)c4ccccc4)c4ccccc4)C(C)=C1C3(C)C)[C@]1(OC(C)=O)CO[C@@H]1C[C@@H]2O | 1 ×10⁻⁴ ug/ml |  |  |  | 
CC(=O)O[C@H]1C(=O)[C@@]2(C)[C@H]([C@H](OC(=O)c3ccccc3)[C@]3(O)C[C@H](OC(=O)[C@H](O[Si](C)(C)C(C)(C)C)[C@H](NC(=O)c4ccccc4)c4ccccc4)C(C)=C1C3(C)C)[C@]1(OC(C)=O)CO[C@@H]1C[C@@H]2O |  |  |  | 0.3 (≈ 0.31 µM) | 
CC(=O)O[C@H]1C(=O)[C@]2(C)[C@@H](OC(C)=O)C[C@H]3OC[C@@]3(OC(C)=O)[C@H]2[C@H](OC(=O)c2ccccc2)[C@]2(O)C[C@H](OC(=O)[C@H](O)[C@@H](NC(=O)c3ccccc3)c3ccccc3)C(C)=C1C2(C)C [PACLITAXEL C7 ACETYLCARBOXYLIC ACID ESTER] |  |  |  | 0.004 (≈ 0.00446 µM) | T/C (P388 [12]): 130%; T/C (P388 [13]): 128%; T/C (P388 [14]): 124%; T/C (P388 [15]): 127%
CC(=O)O[C@H]1C(=O)[C@@]2(C)[C@H]([C@H](OC(=O)c3ccccc3)[C@]3(O)C[C@H](OC(=O)[C@H](O)[C@@H](NC(=O)c4ccccc4)c4ccccc4)C(C)=C1C3(C)C)[C@]1(OC(C)=O)CO[C@@H]1C[C@@H]2O [PACLITAXEL] | 1 ×10⁻⁵ ug/ml | 104 | 137 |  | T/C (P388 [7]): 156%; T/C (P388 [8]): 147%
